Literature values in patent US7833962B2, “Method of reducing hypertension by administering flavanol gylcosides” (Conopco, Inc., priority 2003, dated 2010).
“Also recorded” adds a separate entry of the source.

Assays:
[1] = tested on: Spontaneously Hypertensive Rats (SHR); conditions: chronic treatment, Duarte et al. 2001
[2] = compared with quercetin glucosides such as isoquercitrin

Compound | blood pressure [1] | glutathione peroxidase activity [1] | plasma and hepatic malondialdehyde levels [1] | bioavailability [2]
O=c1c(O)c(-c2ccc(O)c(O)c2)oc2cc(O)cc(O)c12 [quercetin aglycone, quercetin] | reduced blood pressure | increased glutathione peroxidase activity | reduced both plasma and hepatic malondialdehyde levels | 
C[C@@H]1O[C@@H](OC[C@H]2O[C@@H](Oc3c(-c4ccc(O)c(O)c4)oc4cc(O)cc(O)c4c3=O)[C@H](O)[C@@H](O)[C@@H]2O)[C@H](O)[C@H](O)[C@H]1O [rutin, quercetin-3-rutinoside] |  |  |  | poor bioavailability; also recorded: much lower than the glucoside isoquercitrin
